Measured values published in patent US20170304169A1, “USE OF A COSMETIC COMPOSITION COMPRISING 10-HYDROXYSTEARIC ACID” (DSM IP ASSETS B.V., priority 2014, published 2017).

Tests used:
Assay type in all cases: cell-based
[1] = test system: Human skin from abdominal plastic surgery; experiment: Skin viability (MTT) in human skin organ culture; details: topical, 0.1, 1 and 10 mg/ml, day 6, MTT
Method: (§1) Human skin from abdominal plastic surgery has been used (donor[…]). Informed consent has been obtained. The skin phototype has been assayed with a spectro-colorimeter and classified as “BROWN” (ITA° angle=9.3°) (pigmentation scale: very light<light<intermediate<tanned<brown<dark) (Del Bino et al., Pigment Cell Research, 19. 2006).
(§2) The skin samples have been cut in pieces of approximately 8×3 mm (ø×thickness) and cultured up to day 6. Fourteen skin specimens have been used for each treatment. Two skin samples have been cultured to perform the skin viability test, six to perform the skin pigmentation and the collagen analyses and six for the SBC test.
Skin samples have been cultured in an air-liquid interface in a perforated ring of stainless steel in contact with culture medium (modified Williams' E medium) up to day 6. The culture medium has been renewed every three days (i.e. day 0-3).
Both the test samples and the controls have been applied topically and renewed daily. […]
After 6 days of incubation two skin biopsies have been weighed and, in case, reduced in the dermal portion, in order to have approximately the same weight for all of them. […] Subsequently the blue crystals have been solubilized and the color intensity, that is directly proportional to skin vitality, has been measured with a plate reader at a wavelength of 570 nm. […]

Collagen 3 = Collagen 3 immunostaining in human skin organ culture; details: topical, human skin explants
Method: as §1, §2
Skin samples have been cultured in an air-liquid interface in a perforated ring of stainless steel in contact with culture medium (modified Williams' E medium) up to day 6. […]
Skin sections have been immune-stained with the selected antibody. The amount of the antigen present in each slide has been evaluated by estimating the intensity and the distribution of the red within a selected area of the dermis using Image J (NIH-USA). […]
All quantitative data have been summarized in terms of the mean score for each treatment. […] Differences between groups were evaluated by One-way anova with permutation test followed by pairwise post-hoc comparisons—Dunnett's permutation test and pairwise post hoc comparisons—Tukey's HSD permutation tests.

MMP-1 = MMP-1 expression by RT-qPCR in UVB-irradiated human skin organ culture; details: UVB (1 J/cm2), human skin explants
Method: Human skin from abdominal plastic surgery has been used (donor). Informed consent has been obtained. The skin phototype has been assayed with a spectro-colorimeter and classified as “LIGHT” (ITA° angle=50°) (pigmentation scale: very light<light<intermediate<tanned<brown<dark) (Del Bino et al., Pigment Cell Research, 19. 2006).
The skin samples have been cut in pieces of 8×3 mm (ø×thickness) and cultured up to day 2. Two skin samples for each treatment have been cultured to perform the MMP-1 analysis.
Skin samples have been cultured in an air-liquid interface in a perforated ring of stainless steel in contact with culture medium (modified Williams' E medium) up to day 2. The culture medium has been renewed every three days (i.e. day 0-3).
Both the test samples and the controls have been applied topically, renewed 1 hour prior of UVB irradiation. Right before the irradiation the treatments have been gently yet carefully removed from the skin samples. […]
For RT-qPCR analysis, total RNA have been extracted from full thickness skin using RNAeasy mini kit for fibrous tissues (Qiagen) following manufacturer's instructions. After quantification, 400 ng of total RNA have been retro-transcribed using random hexamers and Superscript III (Invitrogen). […]

Type III collagen = experiment: Collagen 3 synthesis in normal human fibroblasts (immunofluorescence, ArrayScan); details: 48 h, human dermal fibroblasts
Method: Human dermal fibroblasts obtained from adult skin (donor) were seeded into 96-well plates (4000 cells/well) and cultured in Dulbecco's Modified Eagle Medium (DMEM) with 10% fetal calf serum (FCS) and 1% Penicillin/Streptomycin (Life Technologies, Lucerne, Switzerland) at 37° C. with 5% CO2 for 24 h. After medium was changed with DMEM Low Glucose containing 0.2% FCS and 1% Pen/Strep, the cells were incubated for another 2.5 days. Then, starvation medium was replaced with fresh medium containing the test compounds. After 48 h incubation the cells were fixed in Dulbecco's Phosphate-Buffered Saline (DPBS) containing 4% formaldehyde (Life Technologies, Lucerne, Switzerland) for 15 min and permeabilized with 0.1% Triton-X100 in DPBS for 90 sec.
Collagen 3 was detected using rabbit anti-human Type III collagen (BioTrend, Cologne, Germany), followed by the AlexaFluor 488 conjugated secondary IgG antibody (goat anti-rabbit IgG, Life Technologies, Lucerne, Switzerland). […]
Stained cells were analysed with the ArrayScan VTI HCS Reader (Thermo Fisher Scientific, Waltham, Mass., USA). The total of 49 pictures per well was acquired with a 10× objective and images were subsequently analysed using the “CellHealthProfiling” bioapplication v4. Collagen was measured in a defined region around the nucleus and the fluorescence intensity values were normalized to the cell count. […]

Collagen 1 = Collagen 1 synthesis in normal human fibroblasts (immunofluorescence, high content imaging); details: 48 h, primary human fibroblasts; for collagen 1 induction (in words): increasing amounts of compound
Method: (§3) Human dermal fibroblasts isolated from a biopsy of a donor (Fb-D) were maintained in Dulbecco's modified Eagle's medium high glucose (DMEM) containing 10% fetal calf serum (FCS) and 1% penicillin/streptomycin (P/S). Cells were cultivated at 37° C. in a humidified 5% CO2-air atmosphere.
Human dermal fibroblasts were pre-cultured in DMEM 10% FCS 1% P/S for 24 h before being starved in DMEM low glucose containing 0.2% FCS and 1% P/S for 2.5 days. Starvation medium was then replaced and solubilized compounds were added and incubated for 48 h. After compound incubation cells were fixed in DPBS containing 4% formaldehyde for 15 min and permeabilized with DPBS 0.1% Triton-X100 for 90 sec. Collagen 1 was detected using mouse anti human collagen 1 antibody and the first antibody was detected with AlexaFluor 488 conjugated goat anti-mouse IgG. We counterstained nuclei with DAPI. Stained cells were analysed with the Thermo Fisher High Content Imaging System. There were acquired 49 pictures per well with a 10× objective and images were subsequently analysed using the “CellHealthProfiling” bioapplication v4. Collagen 1 was measured in a defined region around the nucleus and the fluorescence intensity values were normalized to cell count.
Following a pre-culture period, primary human fibroblasts were incubated for 48 h with increasing amounts of compound. Cells were then fixed and collagen 1 protein level was assessed by immunofluorescence. The experiment was repeated twice. After starvation fibroblasts were incubated for 48 h with increasing amounts of compound. TGF-β1 serves as positive control. Values given are fold collagen 1 induction compared with control cells. […] Collagen 1 induction reached 2.2 fold induction when 10-HSA was used at 5 μM.

p53 = p53 detection and quantification in UVB-irradiated human skin organ culture; details: 0.1 mg/ml, UVB (1 J/cm2), human skin explants
Method: Cell culture was performed as in example 12 above.
Skin sections have been stained with the antibody for p53 (Abcam, #ab7757). The p53 positive cells have been counted and the obtained value have been divided upon the area covered by epidermis. Two slides of each skin sample have been processed by image acquisition and related analysis (i.e. 12 images for each test treatment).
All quantitative data have been summarized in terms of the mean score for each treatment. The measures of variation as standard deviation and standard error of mean (SEM) have been applied to the original scores. Differences between groups were evaluated by One-way anova with permutation test followed by pairwise post-hoc comparisons—Dunnett's permutation test and pairwise post hoc comparisons—Tukey's HSD permutation tests.

Human dermal fibroblasts = experiment: Cytotoxicity measurement, MTT assay in human dermal fibroblasts; details: normal human fibroblasts, 48 h
Method: as §3
Cytotoxicity was measured using the MTT assay according to the manufacturer's instructions. In brief: Fibroblasts (4000 cells/well, in 96-well cell culture plates from Nunc) were pre-cultured in DMEM 10% FCS 1% Penicillin/Streptomycin (P/S) for 24 h before being starved in DMEM low glucose containing 0.2% FCS and 1% P/S for 2.5 days. Starvation medium was then replaced and solubilized compounds were added and incubated for 48 h. Subsequently 10 μl MTT labelling reagent were added to each well (final concentration 0.5 mg/ml) and the microtiter plate was incubated for 4 h (37° C., 5% CO2). After addition of 100 μl solubilization solution into each well, the plate was allowed to stand overnight in the incubator (37° C., 5% CO2). The absorbance (OD) was measured in an absorbance plate reader at 550 nm.
Normal human fibroblasts treated with compounds for 48 h were assessed for viability using the MTT assay. Control values without compound were set to 100% viability.

SMILES	skin viability [1]	increase in expression of collagen 3 (Collagen 3; 0.1 mg/ml)	increase in expression of collagen 3 (Collagen 3; 1 mg/ml)	MMP-1 expression in comparison to vehicle (DMSO), in words (MMP-1)	increase in type III collagen compared with medium treated cells (Type III collagen; 5 μM) [%]	type III collagen synthesis (in words) (Type III collagen; p<0.01 relative to medium control)	fold collagen 1 induction compared with control cells (Collagen 1; 5 μM) [fold]	collagen 1 induction (in words) (Collagen 1)	p53 UV-induced stimulation vs DMSO UV (p53) [%]	cytotoxic effect (reduction of cell survival to less than 80% compared to control cells) (Human dermal fibroblasts)
CCCCCCCCC(O)CCCCCCCCC(=O)O (centres unmarked) [10-HSA, 10-hydroxystearic acid]	did not affect skin viability	+49%	+57%	significantly and considerably reduced the expression of MMP-1	244	significantly induced type III collagen synthesis in a dose-dependent manner	2.2	dose dependent induction of collagen 1	−46	did not show any cytotoxic effect
CCCCCCCCCCCCCCCCCC(=O)O [stearic acid]								did not induced collagen 1 expression		
